Positions of bridges follow the written chain, without caps; N, C: chain ends. Non-standard residues stand in square brackets, D forms with d. Residues, ends and D or L forms follow the SMILES beside them. NMePhe(4-NO2) = CN[C@@H](Cc1ccc([N+](=O)[O-])cc1)C(=O)O; Phe(4-NO2) = N[C@@H](Cc1ccc([N+](=O)[O-])cc1)C(=O)O; 2Nal = N[C@@H](Cc1ccc2ccccc2c1)C(=O)O; d2Nal = N[C@H](Cc1ccc2ccccc2c1)C(=O)O; Orn = NCCC[C@H](N)C(=O)O; Abu = CC[C@H](N)C(=O)O
Assays:
[1] = biological target: T1, rat somatostatin receptor subtype 2 (SSTR2) (Rattus norvegicus, UniProt P30680); assay: Yeast assay, somatostatin agonist activity (zone of growth of modified yeast cells); format: cell-based; design: key: 1 is minimum agonist activity; 5 is maximum agonist activity; --: When no activity is observed, the result is indicated by a dash; conditions: rating on a scale of 1-5 from zone of growth; S. cerevisiae LY364 expressing rat SSTR2
T1 construct: expressed in transfected cells; host or cells: Saccharomyces cerevisiae LY364 bearing pJH2 (SSTR2) and pLP82 (G protein)
Experimental: (§1) In this evaluation, yeast cells which have been specifically modified to functionally express rat somatostatin receptor subtype 2 (SSTR2) on their cell surfaces are used. S. Cerevisiae LY364 cells are plated in a standard synthetic agar medium which lacks histidine. In the absence of a somatostatin receptor agonist, the auxotrophic (his3) cells are unable to grow. In the presence of somatostatin, or a somatostatin agonist, the expression of an enzyme (His3p: imidazole-glycerol phosphate dehydratase) which is essential for histidine biosynthesis is induced. The cells become competent to produce histidine, resulting in a zone of growing cells around the applied test compound. The zone is measured and the test compound is given an agonist rating on a scale of 1-5 wherein 1 is minimum agonist activity and 5 is maximum agonist activity.
1) Inoculate 2 mL SCD-ura-trp liquid medium in Falcon 2051 tube with a single colony taken from a plate containing LY364 (MATa ura3-52 leu2 his3 trp1 lys2 ade2 far1:: LYS2 fus1:: FUS1-HIS3 gpa1::hisG sst2::.ADE2 bearing the SSTR2 expression plasmid, pJH2, and the G protein expression plasmid, pLP82) cells.
3) Add 1 mL of LY364 culture to 1 liter of agar medium.
8) Incubate plates at 30° C.
Day 5. Begin checking plates for growth around applied compounds.
(§2) Day 7. Growth in response to somatostatin should be readily observable. Rate extent of growth or inhibition of growth according to rating scale described hereinabove.

[2] = biological target: T1, rat somatostatin receptor subtype 2 (SSTR2); assay: Yeast assay, somatostatin antagonist activity (zone of no growth in presence of S-14); format: cell-based; design: key: 1 is minimum antagonist activity; 5 is maximum antagonist activity; --: When no activity is observed, the result is indicated by a dash; conditions: rating on a scale of 1-5 from zone of no growth; 5 μL of 1 mg/mL S-14 added to each plate
Experimental: as §1
To evaluate the somatostatin antagonist activity of a test compound, the above procedure is followed except on day 3, 5 μL of 1 mg/mL of somatostatin, S-14, is added to each plate, before applying the test compound. If the test compound is an antagonist of somatostatin, then a zone of no growth will appear within the cell growth zone. This zone of no growth is measured and the test compound is given an antagonist rating on a scale of 1-5 wherein 1 is minimum antagonist activity and 5 is maximum antagonist activity.
The results are shown in Table I. When no activity is observed, the result is indicated by a dash.
On day 3, add 5 μL 1 mg/mL S-14 to each plate.
as §2

[3] = biological target: SSTR2 (Rattus norvegicus, UniProt P30680); assay: Competitive binding, displacement of [125I]Tyr11 S-14; design: expressed in transfected cells; membrane protein; conditions: for Ki: calculated by method of Cheng and Prusoff, read-out: SSTR2 Binding Affinity Ki; for IC50: displacement of [125I]Tyr11 S-14, 250 pM, room temperature, 2 hours, read-out: SSTR2 Binding Affinity IC50
Experimental: In this evaluation the concentration of test compound required to displace 50% of somatostatin, SRIF, from the SRIF receptor subtypes expressed in mammalian cells is measured, i.e., the concentration required to inhibit 50% of [^125 I] Tyr^11 S-14 (Amersham) (IC50) from binding to the SRIF receptor subtypes.
Radiolabeled SRIF is mixed with pituitary cells, the test compound is added, the mixture is incubated and the radioactivity is measured as compared to control. Reduced radioactivity indicates successful competitive binding of the test compound to the pituitary cell receptor. The concentration of the test compound in nanomolar units required to displace 50% of SRIF from the pituitary cell receptor is calculated and reported in Table II as the IC50 value. Also calculated is the inhibitory constant, Ki.
Tyr^11 S-14 (150,000 cpm at 2000 Ci/mmole, 250 pM final concentration). The binding reaction is initiated by adding 2-60 μg of membrane protein in a 170 μL volume. Final reaction volume is 200 μl/well. All incubations are carried out at room temperature for 2 hours. Free radioligand is separated from bound ligand by rapid filtration through a glass fiber filter (IH-201-HA) using an Inotech cell harvester. The filter is then washed several times with cold (4° C.) binding buffer lacking BSA and protease inhibitors prior to counting in an LKB gamma master counter (78% efficiency). Whatman GFC filters presoaked in 0.3% polyethylenimine (to decrease background) are used.
The IC50 values and Ki values are calculated using the well-known methods described by Y. Cheng and W. H. Prusoff, Biochem. Pharmacol. 22, 3099-3108 (1973), incorporated herein by reference thereto.

Sequence of SSTR2 (P30680 whole entry): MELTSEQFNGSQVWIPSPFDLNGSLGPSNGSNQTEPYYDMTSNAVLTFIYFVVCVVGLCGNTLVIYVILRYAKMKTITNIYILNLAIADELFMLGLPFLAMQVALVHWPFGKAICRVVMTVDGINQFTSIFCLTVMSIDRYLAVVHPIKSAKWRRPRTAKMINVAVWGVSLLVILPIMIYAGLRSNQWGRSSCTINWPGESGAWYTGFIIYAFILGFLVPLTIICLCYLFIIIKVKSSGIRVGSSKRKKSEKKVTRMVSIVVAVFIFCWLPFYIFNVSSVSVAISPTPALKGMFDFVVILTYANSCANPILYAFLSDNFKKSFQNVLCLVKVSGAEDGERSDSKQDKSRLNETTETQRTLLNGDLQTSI
T1 sequence (P30680 whole entry): as above

Yeast Assay Agonist [1] | Yeast Assay Antagonist [2] | Ki [3] | IC50 [3] | Compound
-- | 2 | 3.1 nM | 7 nM | CC(C)[C@@H]1NC(=O)[C@H](CCCCN)NC(=O)[C@@H](Cc2c[nH]c3ccccc23)NC(=O)[C@H](Cc2ccc(O)cc2)NC(=O)[C@H](NC(=O)[C@@H](N)Cc2ccc([N+](=O)[O-])cc2)CSSC[C@@H](C(=O)N[C@@H](Cc2ccc3ccccc3c2)C(N)=O)NC1=O [4-NO2 Phe Tyr Lys Val Nal(2)] (H-[Phe(4-NO2)][dC]Y[dW]KVC[2Nal]-NH2; disulfide 2-7 (inferred); N-terminus and C-terminus assumed)
-- | 1 |  |  | CC(C)[C@@H]1NC(=O)[C@H](CCCN)NC(=O)[C@@H](Cc2c[nH]c3ccccc23)NC(=O)[C@H](Cc2ccc(O)cc2)NC(=O)[C@H](NC(=O)[C@@H](N)Cc2ccc([N+](=O)[O-])cc2)CSSC[C@@H](C(=O)N[C@@H](Cc2ccc(O)cc2)C(N)=O)NC1=O [4-NO2 Phe Tyr Orn Val Tyr] (H-[Phe(4-NO2)][dC]Y[dW][Orn]VCY-NH2; disulfide 2-7 (inferred); N-terminus and C-terminus assumed)
-- | 1 | 0.4 nM | 0.9 nM | C[C@@H](O)[C@@H]1NC(=O)[C@H](CCCCN)NC(=O)[C@@H](Cc2c[nH]c3ccccc23)NC(=O)[C@H](Cc2ccc(O)cc2)NC(=O)[C@H](NC(=O)[C@@H](N)Cc2ccc3ccccc3c2)CSSC[C@@H](C(=O)N[C@@H](Cc2ccc(O)cc2)C(N)=O)NC1=O [L-Nal(2) Tyr Lys Thr Tyr] (H-[2Nal][dC]Y[dW]KTCY-NH2; disulfide 2-7 (inferred); N-terminus and C-terminus assumed)
-- | 4 |  |  | CC(=O)N[C@@H](Cc1ccc(I)cc1)C(=O)N[C@@H]1CSSC[C@@H](C(=O)N[C@H](Cc2ccc(O)cc2)C(N)=O)NC(=O)[C@H]([C@@H](C)O)NC(=O)[C@H](CCCCN)NC(=O)[C@@H](Cc2c[nH]c3ccccc23)NC(=O)[C@H](Cc2ccc(O)cc2)NC1=O [Ac-4-IPhe Tyr Lys Thr D-Tyr]
-- | 5 | 2.67 nM | 6 nM | CN[C@@H](Cc1ccc([N+](=O)[O-])cc1)C(=O)N[C@@H]1CSSC[C@@H](C(=O)N[C@@H](Cc2ccc(O)cc2)C(N)=O)NC(=O)[C@H](C(C)C)NC(=O)[C@H](CCCCN)NC(=O)[C@@H](Cc2c[nH]c3ccccc23)NC(=O)[C@H](Cc2ccc(O)cc2)NC1=O [NMe-4-NO2 Phe Tyr Lys Val Tyr] (H-[NMePhe(4-NO2)][dC]Y[dW]KVCY-NH2; disulfide 2-7 (inferred); N-terminus and C-terminus assumed)
-- | 5 | 12.9 nM | 29 nM | CC(C)[C@@H]1NC(=O)[C@H](CCCCN)NC(=O)[C@@H](Cc2c[nH]c3ccccc23)NC(=O)[C@H](Cc2ccc(O)cc2)NC(=O)[C@H](NC(=O)[C@@H](N)Cc2ccc([N+](=O)[O-])cc2)CSSC[C@@H](C(=O)N[C@@H](Cc2ccc(O)cc2)C(N)=O)NC1=O [4-NO2 Phe Tyr Lys Val Tyr] (H-[Phe(4-NO2)][dC]Y[dW]KVCY-NH2; disulfide 2-7 (inferred); N-terminus and C-terminus assumed)

The remaining lines, values behind:

Compound | Yeast Assay Agonist [1] | Yeast Assay Antagonist [2] | Ki [3] | IC50 [3]
CC(=O)N[C@@H](Cc1ccc([N+](=O)[O-])cc1)C(=O)N[C@@H]1CSSC[C@@H](C(=O)N[C@H](Cc2ccc(O)cc2)C(N)=O)NC(=O)[C@H]([C@@H](C)O)NC(=O)[C@H](CCCCN)NC(=O)[C@@H](Cc2c[nH]c3ccccc23)NC(=O)[C@H](Cc2ccc(O)cc2)NC1=O [Ac-4-NO2 Phe Tyr Lys Thr D-Tyr] | -- | 4 | 0.3 nM | 0.7 nM
C[C@@H](O)[C@@H]1NC(=O)[C@H](CCCNC(=N)N)NC(=O)[C@@H](Cc2c[nH]c3ccccc23)NC(=O)[C@H](Cc2ccc(O)cc2)NC(=O)[C@H](NC(=O)[C@@H](N)Cc2ccc([N+](=O)[O-])cc2)CSSC[C@@H](C(=O)N[C@@H](Cc2ccc(O)cc2)C(N)=O)NC1=O [4-NO2 Phe Tyr Arg Thr Tyr] (H-[Phe(4-NO2)][dC]Y[dW]RTCY-NH2; disulfide 2-7 (inferred); N-terminus and C-terminus assumed) | -- | 2 | 25 nM | 57 nM
C[C@@H](O)[C@@H]1NC(=O)[C@H](CCCCN)NC(=O)[C@@H](Cc2c[nH]c3ccccc23)NC(=O)[C@H](Cc2ccc(O)cc2)NC(=O)[C@H](NC(=O)[C@@H](N)Cc2ccc([N+](=O)[O-])cc2)CSSC[C@@H](C(=O)N[C@H](Cc2ccc(O)cc2)C(N)=O)NC1=O [4-NO2 Phe Tyr Lys Thr D-Tyr] | -- | 4 | 1.5 nM | 3 nM
CC[C@@H]1NC(=O)[C@H](CCCCN)NC(=O)[C@@H](Cc2c[nH]c3ccccc23)NC(=O)[C@H](Cc2ccc(O)cc2)NC(=O)[C@H](NC(=O)[C@@H](N)Cc2ccc([N+](=O)[O-])cc2)CSSC[C@@H](C(=O)N[C@@H](Cc2ccc(O)cc2)C(N)=O)NC1=O [4-NO2 Phe Tyr Lys Abu Tyr] (H-[Phe(4-NO2)][dC]Y[dW]K[Abu]CY-NH2; disulfide 2-7) | -- | 3 | 1.78 nM | 4 nM
C[C@@H](O)[C@@H]1NC(=O)[C@H](CCCCN)NC(=O)[C@@H](Cc2c[nH]c3ccccc23)NC(=O)[C@H](Cc2ccc(O)cc2)NC(=O)[C@H](NC(=O)[C@@H](N)Cc2ccc([N+](=O)[O-])cc2)CSSC[C@@H](C(=O)N[C@@H](Cc2ccc(O)cc2)C(N)=O)NC1=O [4-NO2 Phe Tyr Lys Thr Tyr] | -- | 5 | 1.33 nM | 3 nM
CC(C)[C@@H]1NC(=O)[C@H](CCCCN)NC(=O)[C@@H](Cc2c[nH]c3ccccc23)NC(=O)[C@H](Cc2ccc(O)cc2)NC(=O)[C@H](NC(=O)[C@H](N)Cc2ccc3ccccc3c2)CSSC[C@@H](C(=O)N[C@@H](Cc2ccc(O)cc2)C(N)=O)NC1=O [D-Nal(2) Tyr Lys Val Tyr] (H-[d2Nal][dC]Y[dW]KVCY-NH2; disulfide 2-7) | -- | 2 | 0.89 nM | 2 nM
CC(C)[C@@H]1NC(=O)[C@H](CCCCN)NC(=O)[C@@H](Cc2c[nH]c3ccccc23)NC(=O)[C@H](Cc2ccc(O)cc2)NC(=O)[C@H](NC(=O)[C@@H](N)Cc2ccc3ccccc3c2)CSSC[C@@H](C(=O)N[C@@H](Cc2ccc(O)cc2)C(N)=O)NC1=O [L-Nal(2) Tyr Lys Val Tyr] (H-[2Nal][dC]Y[dW]KVCY-NH2; disulfide 2-7) | -- | 3 | 2.22 nM | 5 nM

Reference: US5846934A, “Pure somatostatin antagonist and methods of use thereof” (American Cyanamid Company, priority 1997, dated 1998)
